# According to publication PMC12024912, “Druggability Studies of Benzene Sulfonamide Substituted Diarylamide (E3) as a Novel Diuretic” (Biomedicines, 2025):
# Legend:
# UT-B = molecular target: T1, UT-B (Rattus norvegicus, UniProt P97689); assay: Stopped-flow measurement of erythrocyte urea permeability; type: cell-based
# T1 construct: endogenous in cells; host or cells: erythrocytes from male SD rats
# T1 sequence (P97689 1-384): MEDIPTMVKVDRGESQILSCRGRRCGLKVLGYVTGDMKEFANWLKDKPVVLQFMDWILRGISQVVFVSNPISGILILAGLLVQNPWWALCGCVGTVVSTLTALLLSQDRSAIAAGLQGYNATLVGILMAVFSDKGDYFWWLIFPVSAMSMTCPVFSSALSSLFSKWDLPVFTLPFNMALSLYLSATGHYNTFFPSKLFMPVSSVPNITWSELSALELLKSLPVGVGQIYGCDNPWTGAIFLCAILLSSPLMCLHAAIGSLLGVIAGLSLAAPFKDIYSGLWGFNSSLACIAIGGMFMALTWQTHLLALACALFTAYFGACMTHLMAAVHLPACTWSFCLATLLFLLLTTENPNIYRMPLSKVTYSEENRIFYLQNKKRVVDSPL
# Protocol: Erythrocyte urea permeabilities were assessed via stopped-flow light scattering (SX20, Applied Photophysics, Leatherhead, UK) following established protocols. Erythrocyte was acquired from rat blood and suspended in isotonic PBS (hematocrit 0.5%). Then, the erythrocyte was incubated with test compounds for 5 min and quickly mixed with 500 mmol/L urea dissolved in PBS. Following an initial osmotic shrinking phase, the kinetics of cell volume increase due to urea influx were measured by monitoring the time course of 90° scattered light intensity at 530 nm. […] Keep samples and PBS at 4 °C to reduce the influence of free diffusion. To assay reversibility, compounds were added to erythrocytes for 5 min and then washed with PBS 3 times by 2000 r/min centrifugation before stopped-flow measurements. To determine inhibition on urea efflux, erythrocytes were incubated with 500 mmol/L urea in PBS for 2 h, then mixed with PBS without urea.
# mice [1] = assay: Diuretic effect of single intragastric administration in mice (metabolic cages); type: in vivo, mouse
# Protocol: (§1) In a single-dose administration experiment, male wild-type (WT) mice, UT-B^-/- mice, UT-A1^-/- mice, or SD rats were adapted in metabolic cages for 3 d. Food and water were provided ad libitum throughout the experiment. Prior to administration, the bladder of each animal was emptied through gentle abdominal massage, and urine was collected from the metabolic cages every 2 h. Compound E3, suspended in 0.5% CMC-Na at an appropriate concentration, was administered intragastric gavage to the mice or rats (0.16, 0.8, 4, or 20 mg/kg). Vehicle control comprised 0.5% (w/v) CMC-Na. Urinary parameters were determined through the following: volume: Gravimetric analysis (1 g/mL density assumption); osmolality: freezing-point osmometry (Micro-osmometer, […] Associates, Norwood, MA, USA); and urea: diacetyl oxime colorimetry (QuantiChrom® kit, Elabscience, Wuhan, China). In long-term (7 d) diuretic activity experiments, male WT mice, UT-B^-/- mice, UT-A1^-/- mice, and SD rats were acclimatized in metabolic cages (Ugo Basile, Comerio, VA, Italy) for 3 d. Food and water were provided ad libitum throughout the experiment. E3 was suspended in 0.5% CMC-Na and administered at a dose of 4 or 20 mg/kg by intragastric gavage. Urine was collected by metabolic cages every 24 h. Body weight was measured daily. At 4 h after the final administration, a blood sample was obtained by heart puncture. Inner medulla and outer medulla tissue homogenates were prepared, and the supernatant after centrifugation was analyzed for solute concentration and osmolality. Urinary osmolality and urea concentration were measured as above. Serum Na^+, K^+, and Cl^- were measured in a clinical chemistry laboratory, while serum creatinine, ALT, and AST were measured through specific reagent kits (NJJC Bio, Nanjing, China).
# SD rats = assay: Diuretic effect of single intragastric administration in rats (metabolic cages); type: in vivo, rat
# Protocol: as §1
# hERG K+ channel = molecular target: T2, hERG K+ channel (Homo sapiens, UniProt Q12809); assay: hERG K+ channel tail current, QPatch, CHO-hERG cells; type: cell-based
# T2 construct: expressed in transfected cells; host or cells: CHO-hERG cells
# T2 sequence (Q12809 whole entry): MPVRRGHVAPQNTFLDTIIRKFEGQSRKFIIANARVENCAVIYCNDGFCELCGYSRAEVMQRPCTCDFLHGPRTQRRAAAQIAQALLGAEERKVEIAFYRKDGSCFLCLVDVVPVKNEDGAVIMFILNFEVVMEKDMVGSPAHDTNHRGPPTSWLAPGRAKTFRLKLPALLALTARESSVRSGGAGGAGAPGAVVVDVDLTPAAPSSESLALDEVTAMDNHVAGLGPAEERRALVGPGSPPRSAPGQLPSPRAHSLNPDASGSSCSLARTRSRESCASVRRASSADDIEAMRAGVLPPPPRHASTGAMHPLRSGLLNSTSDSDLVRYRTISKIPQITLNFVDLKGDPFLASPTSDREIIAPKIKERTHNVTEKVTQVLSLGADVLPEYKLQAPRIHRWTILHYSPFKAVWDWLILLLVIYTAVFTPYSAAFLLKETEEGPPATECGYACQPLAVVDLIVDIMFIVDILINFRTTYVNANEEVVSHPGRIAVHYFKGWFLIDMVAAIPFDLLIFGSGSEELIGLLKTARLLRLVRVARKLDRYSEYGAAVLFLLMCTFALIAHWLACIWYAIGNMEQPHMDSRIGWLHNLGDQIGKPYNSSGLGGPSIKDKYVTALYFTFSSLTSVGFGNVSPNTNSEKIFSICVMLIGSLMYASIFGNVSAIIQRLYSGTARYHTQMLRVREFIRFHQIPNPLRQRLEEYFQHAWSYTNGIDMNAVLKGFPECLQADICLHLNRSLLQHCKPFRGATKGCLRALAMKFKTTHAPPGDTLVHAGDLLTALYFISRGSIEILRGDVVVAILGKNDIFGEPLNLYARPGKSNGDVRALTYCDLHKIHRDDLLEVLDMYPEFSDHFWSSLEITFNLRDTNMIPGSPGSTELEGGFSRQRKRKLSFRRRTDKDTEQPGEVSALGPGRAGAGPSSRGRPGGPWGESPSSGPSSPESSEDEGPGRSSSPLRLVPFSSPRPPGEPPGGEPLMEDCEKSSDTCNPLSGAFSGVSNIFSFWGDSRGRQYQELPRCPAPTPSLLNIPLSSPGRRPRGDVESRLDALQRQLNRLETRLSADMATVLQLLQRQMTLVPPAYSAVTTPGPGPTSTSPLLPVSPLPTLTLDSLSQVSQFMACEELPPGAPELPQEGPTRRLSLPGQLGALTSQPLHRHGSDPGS
# Protocol: CHO-hERG cells were maintained in F12 medium (Gibco, Thermo Fisher Scientific, Waltham, MA, USA) containing 10% FBS and 0.5 mg/mL Geneticin (Invitrogen, Thermo Fisher Scientific, Waltham, MA, USA) under standard culture conditions (37 °C, 5% CO2). Cells were seeded 2 days prior to reaching 70% confluency, then washed with PBS and detached using 5 mL Detachin (Genlantis, San Diego, CA, USA) at 37 °C for 2~3 min. Cell suspensions (2 × 10^6 cells/mL in F12) were prepared and equilibrated for 20 min in the QStir station of the QPatch-16 system (Sophion Bioscience, Copenhagen, Denmark) before electrophysiological recordings.
# hERG channel tail currents were assessed using the QPatch automated platform. Recording solutions contained (mM): Internal: KCl 120, CaCl2 5.374, MgCl2 1.75, KOH 31.25, EGTA 10, HEPES 10, Na2ATP 4 (pH 7.2); External: NaCl 145, KCl 4, MgCl2 1, CaCl2 2, HEPES 10, glucose 10 (pH 7.4)
# Cells were voltage-clamped at −80 mV with series resistance monitored during −100 mV hyperpolarization. The stimulation protocol included: (1) 200 ms baseline at −50 mV; (2) 2s depolarization to +20 mV; and (3) tail current recording at −50 mV. Signals were acquired at 2 kHz through the integrated Bessel filter. Concentration-response relationships were established by sequential compound applications bracketed with saline controls for normalization.
# mice [2] = assay: Mouse sperm malformation assay; details: mouse, in vivo, po, 2000 mg/kg/day
# Protocol: Male mice were randomly divided into three groups: control group (0.5% CMC-Na), E3 2000 mg/kg group, and positive group (50 mg/kg cyclophosphamide (CP), administered via intraperitoneal injection). E3 and the control group were administered once daily by intragastric gavage. All mice received treatment for 5 consecutive days. After the initial dosing period, […], the mice were euthanized, and evaluation of sperm parameters was performed as follows:
# Caudal epididymides were dissected into fragments in physiological saline and incubated (37 °C, 5% CO2, 10 min). Spermatozoa were isolated through nylon mesh filtration. Semen parameters were quantified using computer-assisted semen analysis (CASA). Eosin-stained smears (20 μL sperm suspension) were analyzed to examine sperm morphology. […] Sperm shape abnormalities, such as banana, headless, without a hook, amorphous, double-tailed, and fat head, were identified and counted. In addition, the testis was reserved for morphological analysis. The spermatogenesis was graded from 1 to 10 using the Johnsen score.
# [3] = UT-A1−/− mice, 20 mg/kg single dose
# [4] = UT-B−/− mice, 20 mg/kg single dose
# [5] = mice, single intragastric gavage
structure (smiles),measurement,setting,value
"CC(=O)c1ccc(C(=O)Nc2cccc(NS(=O)(=O)c3ccccc3)c2)o1 [Compound E3, 5-acetyl-N-(3-(phenylsulfonamido)phenyl)furan-2-carboxamide]",reversibility of UT-B inhibition,UT-B; 1 μM followed by washout with PBS,reversible
same,UT-B-mediated urea influx into erythrocytes,"UT-B; stopped-flow light scattering, rat erythrocytes",dose-dependently inhibit
same,UT-B-mediated urea efflux,"UT-B; stopped-flow, erythrocytes preloaded with high urea, mixed with isotonic PBS",inhibited UT-B-mediated urea efflux in a dose-dependent manner
same,excretion of non-urea solutes,mice [1]; [3],not significantly changed
same,urea concentration (urine),mice [1]; [3],no significant change
same,urinary osmolality,mice [1]; [3],no significant change
same,urine output,mice [1]; [3],no significant change
same,excretion of non-urea solutes,mice [1]; [4],not significantly changed
same,urinary osmolality,mice [1]; [4],decreased correspondingly
same,urinary urea,mice [1]; [4],decreased correspondingly
same,urine output,"mice [1]; UT-B−/− mice, 20 mg/kg single dose, 2 h post administration",markedly increased
same,urinary osmolality,mice [1]; [5],decreased
same,urinary urea,mice [1]; [5],decreased
same,urine output,"mice [1]; mice, single intragastric gavage 0.16-20 mg/kg, vs vehicle",significantly increased
same,excretion of non-urea solutes,"mice [1]; mice, single intragastric gavage, vs control",not significantly different
same,urinary osmolality,SD rats; single intragastric gavage,decreased
same,urinary urea,SD rats; single intragastric gavage,decreased
same,urine output,"SD rats; single intragastric gavage 0.16-20 mg/kg, vs vehicle",significantly increased
same,excretion of non-urea solutes,"SD rats; single intragastric gavage, vs control",not significantly different
same,IC50,hERG K+ channel,> 33.3 µM
same,"testicular tissue, H&E staining",mice [2],no significant differences
